Entries after “also recorded” stand apart in the source; their conditions may differ.
Assays:
[1] = Elevated plus maze, anxiety-like behaviors; format: in vivo, mice; details: sc, 30 min before test; pregnenolone 1, 6, 10 mg/kg; rimonabant 10 mg/kg
Protocol: The elevated plus maze was made by a central platform (10×10 cm) from which departed 4 arms (45×10 cm) at a 90° angle from each other. Two opposite arms, named closed arms had peripheral wall 50 cm high. The two other arms, named open arms had no walls. The maze was suspended at 66 cm from the floor of the room and was brightly lighted (120 lux). The testing consisted in placing the animal in the central platform and the number of entry and the time spent in each compartment of the maze recorded for 5 min. The number of entry and time spent in the open arms are considered and index of anxiety-like behaviors, whilst the total number of entry are and index of locomotor activity.
One of the major side effects of orthosteric antagonists of the CB1 is the induction of behavioral side effect and in particular an axiodepressive state. […] This test has been chosen because an increase in anxiety was the principal undesirable side effect of this compound in humans.

CHO cells = experiment: Study of metabolism in vitro in CHO cells, steroids in culture medium by GC/MS; details: CHO cells
Protocol: (§1) Plasma, brain and culture medium levels of pregnenolone (5-Pregnen-3β-ol-20-one), allopregnanolone (3α-hydroxy-5α-pregnan-20-one), epiallopregnanolone (3β-hydroxy-5α-pregnan-ol-20-one), testosterone, and 5α dihydrotestosterone were determined by GC/MS according to the of estraction, purification and quantification protocol described previously (George O, et al., Biol Psychiatry. 2010 68: 956-63, Vallee M, et al., Anal Biochem. 2000, 287:153-66).
The CHO-K1 cell line (#CCL-61, ATCC-LGC, USA) derived as a subclone from the parental CHO cell line initiated from a biopsy of an adult Chinese hamster ovary was used. The CHO-K1 cells were seeded on 24-well plates (#353047, BD Biosciences, USA) to the appropriate concentration (25×10^4 cells/well) in fresh, antibiotic-free medium constituted by 90% DMEM-Glutamax; (#31966-21, Life technologies, USA) and 10% Fetal Bovine Serum (#10270-106, Life technologies, USA).
In this example the inventors further analyzed the metabolism of pregnenolone derivatives using an in vitro test in CHO cells. These cells derived from the ovary have all the enzymes needed to metabolize pregnenolone in down stream steroids.

TNF-α = experiment: Increase in plasma TNF-alpha induced by LPS; format: in vivo, mice; details: Mus musculus; mice; compounds 6 mg/kg 15 min before LPS
Protocol: Trunk blood was collected and centrifuged at 3000 rpm for 15 min at 4° C. Plasma was stored at −80° C. until measurement of TNFα was carried out. Plasma TNFα levels were assessed using an ELISA kit, following the manufacturer's instructions (Fisher Scientific, Catalog #E6473C).
In this example the inventors further analyzed the ability of pregnenolone to inhibit the effects of CB1 activation in the context of inflammation and fibrosis. […] TNF-alpha is one of the cellular responses to inflammatory stimuli more involved in promoting fibrosis.
(§2) Other pregnenolone derivatives (Table 4) for which the metabolism in downstream active steroids was reduced were tested for their ability to inhibit: 1. effects of the THC-induced cannabinoid tetrade (decrease in body temperature and in locomotor activity, (THC 10 mg/kg, compounds 6 mg/kg 15-30 min before THC) that is recognized as a sound method to evaluate the activation of the CB1 receptor; 2. THC-induced increase in food intake a typical effect of CB1 activation (THC between 0.5 and 1 mg/kg, compounds between 2 and 4 mg/kg 30 min before THC); 3. the increase in TNFalpha induced by LPS, another effects typical of CB1 […] (compounds 6 mg/kg 15 min before LPS). For each compound and each test independent groups of animals were used (at least n=6 per compound/per test).

[2] = Allopregnanolone and epiallopregnanolone in nucleus accumbens after high dose injection (GC/MS); format: in vivo, Wistar rats; details: 50 mg/kg; 30 min after the injections
Protocol: The capacity of a compound of the invention to be or not to be converted into active pregnenolone downstream derivatives may be evaluated by administering this compound, for example by injecting 50 mg/kg, to a rat, sacrificing the rat 30 min later, measuring the concentration of allopregnanolone and epiallopregnanolone in nucleus accumbens of rat by GC/MS and comparing these concentrations to allopregnanolone and epiallopregnanolone in a rat whose has been injected only a vehicle or pregnenolone.
The concentrations of allopregnanolone and epiallopregnanolone were measured in nucleus accumbens of individual animal by GC/MS 30 min after the injections.

CB1 receptor [3] = target: T1, CB1 receptor (Mus musculus, UniProt P47746); experiment: THC-induced cannabinoid tetrad (body temperature, locomotor activity, catalepsy, analgesia); format: in vivo, mice; set-up: tissue Charles River Laboratories (France) (animals); host or cells: living mice, whole animal; details: mice; THC 10 mg/kg; compounds 6 mg/kg 15-30 min before THC
CB1 receptor [4] = target: T1, CB1 receptor; experiment: THC-induced increase in food intake in mice; format: in vivo; set-up: tissue Charles River Laboratories (France) (animals); host or cells: living mice, whole animal; details: for effect on THC-induced increase in food intake (hyperphagia) in mice: 24 h-food deprived C57B1/6 mice, THC 1 mg/kg, compound 2 mg/kg sc; for % Inhibition of THC-Induced food intake: mice, THC between 0.5 and 1 mg/kg, compounds between 2 and 4 mg/kg 30 min before THC
Protocol: (§3) Food intake was evaluated by measuring consumption of food in the home cages of the animals. For each animal, 50-100 g of standard laboratory chow (U.A.R., France) was placed in the cleaned home cage. The remaining amount of food was weighted 1 h later and the amount of food consumed calculated.
as §2

CB1 receptor [5] = target: T1, CB1 receptor; experiment: Food intake in 24 h-food deprived mice (fasting/refeeding); format: in vivo, C57B1/6 mice; set-up: tissue Charles River Laboratories (France) (animals); host or cells: living mice, whole animal; details: no THC; for first statistically significant dose for decrease of food intake: food-deprived (food-restricted) mice; for effect on food intake in 24 h-food deprived mice: food intake over 1 h
CB1 receptor [6] = target: T2, CB1 receptor (Rattus norvegicus, UniProt P20272); experiment: THC-induced increase in food intake in ad libitum fed Wistar rats; format: in vivo; set-up: tissue Charles River Laboratories (France) (animals); host or cells: living Wistar rats, whole animal; details: THC 0.5 mg/kg; 17-methylpregnenolone 8 mg/kg sc
Protocol: as §3

CB1 receptor [7] = target: T2, CB1 receptor; experiment: Pregnenolone concentrations in the brain after drugs of abuse and CB1 ligands (GC/MS); format: in vivo, Wistar rats; set-up: tissue Charles River Laboratories (France) (animals); host or cells: living Wistar rats, whole animal; details: for effect of CB1/CB2 agonists on pregnenolone concentrations: rats, n=6-12 per group
Protocol: as §1
In this example the inventors analyzed the effects of the injection of the principal drugs of abuse on the production of pregnenolone in male Wistar rats. […] For example, in the brain, starting from pregnenolone two parallel enzymatic cascades allow producing on one hand allopregnanolone and its stereoisomer epiallopregnanolone and on the other testosterone and its metabolite DHT. These brain steroids were quantified using GC-MS, the only technique able to differentiate their subtle structural differences. […] Concentrations of neurosteroids were analyzed 15, 30 and 120 min after the injection in several ascending brain structure, the ventral midbrain the hypothalamus, the striatal complex and the frontal cortex.
The example provides data obtained in the plasma and in several brain structures: frontal cortex (FCX); nucleus accumbens (ACC); striatum (STR); hypothalamus (HYP).
The effects of THC in the brain are mediated by a family of G-protein-coupled seven membrane receptors (GCPR) and principally by the CB1 and CB2 receptors.

CB1 receptor [8] = target: T1, CB1 receptor; experiment: THC inhibition of fEPSP in nucleus accumbens slices; format: cell-based, mice; set-up: from tissue; host or cells: acute brain slices, nucleus accumbens; details: control slices
Protocol: Animals were deeply anesthetized with Isoflourane and transcardially perfused with a sucrose-based physiological solution at 4° C. (in mM: 23 NaHCO3, 70 Choline Cl, 75 Sucrose, 25 Glucose, 2.5 KCl, 1.25 NaH2PO4, 7 MgCl2 and 0.5 CaCl2). The brain was removed and sliced (250-300 μm) in the coronal plane using a vibratome (Campden Instruments, Loughborough, UK). During the slicing process, the brain was maintained in the sucrose-based solution. Immediately after cutting, slices were stored at 32° C. for 40 minutes in a low-calcium artificial cerebrospinal fluid (low-Ca^2+ ACSF) that contained (in mM): 23 NaHCO3, 120 NaCl, 11 Glucose, 2.5 KCl, 1.2 NaH2PO4, 2.4 MgCl2, 1.2 CaCl2. Slices were then stored in low-Ca^2+ ACSF at room temperature until recording.
For fEPSPs, extracellular glass recording and stimulating electrodes were filled with ACSF. Synaptic potentials were evoked by means of two electric stimuli (0.1-0.25 mA, 200 μsec duration) delivered at 20 Hz every 10 seconds. Stimulating electrode was placed at a distance>150 μm in the dorsomedial direction from the recoding electrode.
In order to test the effect of pregnenolone on a wider range of THC concentrations, we recorded fEPSP in NAc slices. Due to the possibility to achieved stable fEPSP measurements for several hours, this technique is ideally suited to perform dose-response curves and has previously been used to address CB1 receptor function (Robbe et al., 2001; Mato et al., 2004). Thus, AMPAR-mediated evoked fEPSP were recorded by electrically stimulating local axons.

CB1 receptor [9] = target: T2, CB1 receptor; experiment: THC inhibition of AMPAR-mediated EPSC, patch clamp in nucleus accumbens slices; format: cell-based, rats; set-up: from tissue; host or cells: acute coronal brain slices, nucleus accumbens; details: control slices

T2 sequence (P20272 whole entry): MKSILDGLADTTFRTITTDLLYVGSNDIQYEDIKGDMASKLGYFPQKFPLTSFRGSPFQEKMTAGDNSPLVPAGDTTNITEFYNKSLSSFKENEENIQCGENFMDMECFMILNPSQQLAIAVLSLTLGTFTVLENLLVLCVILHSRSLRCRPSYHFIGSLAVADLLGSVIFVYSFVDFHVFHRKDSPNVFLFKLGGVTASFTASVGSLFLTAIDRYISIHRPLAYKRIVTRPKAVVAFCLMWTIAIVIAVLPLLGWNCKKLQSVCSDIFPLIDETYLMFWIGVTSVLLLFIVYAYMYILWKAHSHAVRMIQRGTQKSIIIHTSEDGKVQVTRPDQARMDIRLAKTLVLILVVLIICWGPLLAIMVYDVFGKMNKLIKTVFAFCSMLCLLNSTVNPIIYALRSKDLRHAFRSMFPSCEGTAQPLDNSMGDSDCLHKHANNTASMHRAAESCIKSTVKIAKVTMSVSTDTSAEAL
T1 sequence (P47746 whole entry): as the sequence (P20272 whole entry) above, with E95D counted along it

SMILES	metabolism in downstream active steroids (Reduced metabolism / Metabolized) (CHO cells)	production of allopregnanolone and epiallopregnanolone in nucleus accumbens [2]	effect on THC-induced increase in food intake (hyperphagia) in mice (CB1 receptor [4])	% Inhibition of THC-Induced food intake (CB1 receptor [4])	first statistically significant dose for decrease of food intake (CB1 receptor [5])	effect on food intake in 24 h-food deprived mice (CB1 receptor [5])	effect on increase in food intake induced by THC in ad libitum fed Wistar rats (CB1 receptor [6])	further results
Cc1c(C(=O)NN2CCCCC2)nn(-c2ccc(Cl)cc2Cl)c1-c1ccc(Cl)cc1 [rimonabant, reference compound]	–	–	–	–	–	–	–	anxiety-like behavior (entries and time spent in open arms) [1]: anxiogenic effects
CC(=O)[C@@]1(C)CCC2C3CC=C4C[C@@H](O)CC[C@]4(C)C3CC[C@@]21C (stereo partly drawn) [Compound 2, 17α-Methylpregnenolone]	Reduced metabolism	None of the modified pregnenolone derivatives	decreased THC-induced hyperphagia	≥100%, P < 0.001	4 mg/kg	dose-dependently decreased food intake	significantly reduced; also recorded: decrease significantly the increase in food intake induced by THC in rats	inhibition in vivo at 6 mg/kg (TNF-α): 60%; % Inhibition temperature decrease (CB1 receptor [3]): 43%, P < 0.001; % increase in motor activity (CB1 receptor [3]): 240%, P < 0.01; dose inhibiting THC-induced increase in food-intake (first effective dose) (CB1 receptor [4]; dose response in 24 h-food deprived mice, 0.5 mg/kg dose was ineffective): 1 mg/kg
CCCCCCC(C)(C)c1cc(O)c2c(c1)OC(C)(C)[C@@H]1CC=C(CO)C[C@@H]21 [HU210]	–	–	–	–	–	–	–	effect of CB1/CB2 agonists on pregnenolone concentrations (CB1 receptor [7]): induced a significant increase in pregnenolone
CC(=O)[C@@]1(C)CCC2C3CC=C4C[C@@H](F)CC[C@]4(C)C3CC[C@@]21C (stereo partly drawn) [Compound 3, 3β-Fluoro-17α-methylpregnenolone]	Reduced metabolism	None of the modified pregnenolone derivatives	decreased THC-induced hyperphagia	≥100%, P < 0.01	6 mg/kg	dose-dependently decreased food intake	non statistically significant trend to decrease	–
CCCC(C)(C)c1ccc2c(c1)OC(C)(C)[C@@H]1CC=C(C)C[C@@H]21 [JWH, 133]	–	–	–	–	–	–	–	effect of CB1/CB2 agonists on pregnenolone concentrations (CB1 receptor [7]): much lower and not significant effects
CC(=O)C1CCC2C3CC=C4C[C@@H](F)CC[C@]4(C)C3CC[C@]12C (stereo partly drawn) [Compound 1, 3β-Fluoropregnenolone]	Reduced metabolism	None of the modified pregnenolone derivatives	decreased THC-induced hyperphagia	≥100%, P < 0.01	6 mg/kg	dose-dependently decreased food intake	non statistically significant trend to decrease	inhibition in vivo at 6 mg/kg (TNF-α): 58%
CCCCCc1cc(O)c2c(c1)OC(C)(C)[C@@H]1CCC(C)=C[C@@H]21 [THC, Δ9-tetrahydrocannbinol, reference compound]	–	–	–	–	–	–	–	inhibition at 10 µM (CB1 receptor [8]; THC 10 μM): 23.9 ± 6%; inhibition at 20 µM (CB1 receptor [8]; THC 20 μM): 35.3 ± 4.7%; inhibition at 40 µM (CB1 receptor [8]; THC 40 μM): 48.6 ± 3.6%; inhibition of EPSC amplitude by THC (CB1 receptor [9]): 34.3±3.7 % of inhibition; increase in brain concentrations of pregnenolone (CB1 receptor [7]; nucleus accumbens, between 15 and 30 min after the injection, THC 3 mg/kg): around 1500%; ED50 (CB1 receptor [7]; rat, 30 min after the injection, THC 0.3-9 mg/kg, read-out: ED50 of the increase in pregnenolone in the brain): ~3 mg/kg
